The text below walks through data of ChEMBL document CHEMBL4304749, “Covalent Inhibitors of Protein-Protein Interactions Targeting Lysine, Tyrosine, or Histidine Residues” (J Med Chem, 2019).

A word on the half-life: it is how long it takes for the measured level to halve. A low value points to rapid decline. One may read the EC50 as the midpoint of the concentration-response curve. Higher therefore signals a less potent agent. Usually ΔTm stands for the shift of the melting midpoint relative to a reference. The term IC50 denotes the point on the concentration scale where inhibition reaches its midpoint. A higher IC50 goes with weaker potency in that assay.

Square brackets hold non-standard residues; d marks the D form. Peptide text beside a SMILES is read from it. Tyr(SO2F) = N[C@@H](Cc1ccc(OS(=O)(=O)F)cc1)C(=O)O; NMeA = CN[C@@H](C)C(=O)O

A short description of data set [1]: Half-life in mouse plasma at 200 uM by LC-MS method. In kind it is ADME, cell-free.
Data set [2] is described as follows: Drug degradation in mouse plasma at 200 uM after 40 min by LC-MS method. In kind it is ADME, cell-free. The following applies: read-out: Drug degradation.
Data set [3] can be described thus: Half-life in 50 mM phosphate buffer of pH 7.5 at 37 degreeC by 1H NMR method. In kind it is physicochemical. The following applies: for t1/2: buffer; for half-life: phosphate buffer.
Data set [4] can be described thus: Aqueous stability of the compound in simulated gastric fluid at pH 1.5 by NMR spectroscopy.
Data set [5] in a line: Aqueous stability of the compound pH 7.2 by NMR spectroscopy. In kind it is physicochemical. The following applies: buffer.
Data set [6] concerns SK-OV-3. Nature of the data set: Induction of apoptosis in human SKOV3 cells assessed caspase-3 activation after 24 hrs by IncuCyte S3 live-cell analysis. It is filed as functional, cell-based. The following applies: SK-OV-3, 24 h.
Data set [7] relates to SK-OV-3. As to the kind of experiment: Induction of apoptosis in human SKOV3 cells assessed caspase-3 activation after 48 hrs by IncuCyte S3 live-cell analysis. In kind it is functional, cell-based. The following applies: SK-OV-3, 48 h.
Data set [8] addresses T1, E3 ubiquitin-protein ligase XIAP (Homo sapiens, UniProt P98170).
Data set [9] deals with T1, E3 ubiquitin-protein ligase XIAP. The source holds these as a separate data set.
The nature of data set [10]: Half-life of the compound at pH 7.2 by NMR spectroscopy. It is filed as physicochemical.
Data set [11] is described as follows: Stability in mouse plasma at 200 uM by LC-MS method. In kind it is ADME, cell-free.
In data set [12] the target is T1, E3 ubiquitin-protein ligase XIAP. As to the kind of experiment: biochemical.
Data set [13] has the same target. As to the kind of experiment: biochemical. The source holds these as a separate data set.

T1 sequence (P98170 whole entry): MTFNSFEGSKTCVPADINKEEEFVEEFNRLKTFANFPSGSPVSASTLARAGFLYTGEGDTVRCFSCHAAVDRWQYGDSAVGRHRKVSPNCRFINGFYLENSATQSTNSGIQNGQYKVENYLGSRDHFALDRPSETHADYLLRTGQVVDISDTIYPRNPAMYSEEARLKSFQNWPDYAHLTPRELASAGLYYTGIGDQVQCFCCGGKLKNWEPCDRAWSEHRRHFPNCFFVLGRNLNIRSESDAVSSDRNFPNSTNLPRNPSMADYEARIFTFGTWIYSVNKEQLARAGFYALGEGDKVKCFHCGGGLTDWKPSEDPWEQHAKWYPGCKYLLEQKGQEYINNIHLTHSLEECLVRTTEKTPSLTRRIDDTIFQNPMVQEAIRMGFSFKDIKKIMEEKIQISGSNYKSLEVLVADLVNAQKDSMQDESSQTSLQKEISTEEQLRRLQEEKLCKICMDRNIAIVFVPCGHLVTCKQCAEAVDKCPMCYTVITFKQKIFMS

In the case of `CN[C@@H](C)C(=O)N[C@@H](CNCc1ccc(S(=O)(=O)F)cc1)C(=O)N1CCC[C@H]1C(=O)N[C@@H]1CCc2c(F)cccc21`, the half-life at 200 µM in data set [1] was 0.25 h. Moreover, the metabolised at 40 min, 200 µM in data set [2] stood at 100%.

In the case of `CN[C@@H](C)C(=O)N[C@@H](Cc1ccc(OS(=O)(=O)F)cc1)C(=O)N1CCC[C@H]1C(=O)N[C@@H](Cc1ccccc1)C(N)=O` (H-[NMeA][Tyr(SO2F)]PF-NH2), in data set [3], the t1/2 is over 5 h. Further, the Stability entry in data set [4] and in data set [5] was “Stable” in each case.

In data set [3], `CN[C@@H](C)C(=O)N[C@@H](Cc1ccc(S(=O)(=O)O)cc1)C(=O)N1CCC[C@H]1C(=O)N[C@@H](Cc1ccccc1)C(N)=O` showed a t1/2 of over 5 h.

With `CN[C@@H](C)C(=O)N[C@@H](CNCc1ccc(S(=O)(=O)F)cc1)C(=O)N1CCC[C@H]1C(=O)N[C@@H](Cc1ccccc1)C(N)=O`, in data set [3], the half-life was 2.5 h. Besides, the Stability result in data set [4] and in data set [5] was “Stable” each time.

Consider `CN[C@@H](C)C(=O)N[C@H](C(=O)N1CCC[C@H]1c1nc(C(=O)c2ccc(F)cc2)cs1)C1CCCCC1` [LCL-161], for which, in data set [1], the half-life at 200 µM is over 2 h. For the same compound, the EC50 was 3 nM in the data set with SK-OV-3 [6] and 1 nM in the data set on SK-OV-3 [7].

`CN[C@@H](C)C(=O)N[C@@H](Cc1ccc(OS(=O)(=O)F)cc1)C(=O)N1CCC[C@H]1C(=O)NC1Cc2ccccc2C1` returned a half-life at 200 µM in data set [1] of over 2 h.

In the case of `CC(C)[C@H](NC(=O)[C@H](C)N)C(=O)N1CCC[C@H]1C(=O)N[C@@H](Cc1ccccc1)C(=O)O` (H-AVPF-OH), the half-life in data set [3] was over 5 h. Further, the thermal shift (ΔTm) in data set [8] was found to be 5.5 °C; in [9], 17 °C.

In data set [1], `CN[C@@H](C)C(=O)N[C@@H](Cc1ccc(OS(=O)(=O)F)cc1)C(=O)N1CCC[C@H]1C(=O)N[C@@H]1CCc2c(F)cccc21` yielded a half-life at 200 µM of over 2 h.

In the case of `CN[C@@H](C)C(=O)N[C@@H](CNC(=O)c1ccc(S(=O)(=O)F)cc1)C(=O)N1CCC[C@H]1C(=O)N[C@@H](Cc1ccccc1)C(N)=O`, the half-life in [10] and in data set [3] was 0.5 h in each case. Further, the Stability entry is on record as “Stable” in [4] and “Unstable” in [11].

In [1], `CN[C@@H](C)C(=O)N[C@H](C(=O)N1CCC[C@H]1C(=O)Nc1snnc1-c1ccccc1)C1CCCCC1` [GDC-0152] gave a half-life at 200 µM of 1 h. The EC50 in the data set on SK-OV-3 [6] was determined as 3 nM; in the data set with SK-OV-3 [7], 2.5 nM. Also, the thermal shift (ΔTm) in data set [8] was 15 °C; in [9], 19.5 °C. Besides, the half-maximal inhibitory concentration (IC50) in data set [12] and in data set [13] was 21 nM throughout.
